Measurements from US8461083B2, “Herbicidal compounds” (Syngenta Limited, priority 2008, dated 2013).

Experiments:
Assay type in all cases: in vivo
[1] = test system: Echinochloa crus-galli (ECHCG); assay: Post-emergence herbicidal glasshouse test; conditions: post-emergence (sprayed after 8 days cultivation), evaluated after 13 days, 100=total damage to plant, 0=no damage to plant; for pest or weed control at 1000 g/ha: Echinochloa crus-galli, 312 h, read-out: POST Application ECHCG, damage to plant; for POST Application ECHCG, damage to plant: 1000 g/ha
Procedure: (§1) Seeds of a variety of test species were sown in standard soil in pots (Alopecurus myosuroides (ALOMY), Setaria faberi (SETFA), Echinochloa crus-galli (ECHCG), Solanum nigrum (SOLNI) and Amaranthus retoflexus (AMARE)). After cultivation for one day (pre-emergence) or after 8 days cultivation (post-emergence) under controlled conditions in a glasshouse (at 24/16° C., day/night; 14 hours light; 65% humidity), the plants were sprayed with an aqueous spray solution derived from the formulation of the technical active ingredient in acetone/water (50:50) solution containing 0.5% Tween 20 (polyoxyethelyene sorbitan monolaurate, CAS RN 9005-64-5). Compounds were applied at 1000 g/ha. The test plants were then grown in a glasshouse under controlled conditions in a glasshouse (at 24/16° C., day/night; 14 hours light; 65% humidity) and watered twice daily. After 13 days for pre and post-emergence, the test was evaluated (100=total damage to plant; 0=no damage to plant).

[2] = test system: Amaranthus retoflexus (AMARE); assay: Post-emergence herbicidal glasshouse test; conditions: post-emergence (sprayed after 8 days cultivation), evaluated after 13 days, 100=total damage to plant, 0=no damage to plant; for pest or weed control at 1000 g/ha: Amaranthus retroflexus, 312 h, read-out: POST Application AMARE, damage to plant; for POST Application AMARE, damage to plant: 1000 g/ha
Procedure: as §1

Solanum nigrum (SOLNI) [3] = assay: Post-emergence herbicidal glasshouse test; conditions: post-emergence (sprayed after 8 days cultivation), evaluated after 13 days, 100=total damage to plant, 0=no damage to plant; for pest or weed control at 1000 g/ha: Solanum nigrum, 312 h, read-out: POST Application SOLNI, damage to plant; for POST Application SOLNI, damage to plant: 1000 g/ha
Procedure: as §1

Setaria faberi (SETFA) [4] = assay: Post-emergence herbicidal glasshouse test; conditions: post-emergence (sprayed after 8 days cultivation), evaluated after 13 days, 100=total damage to plant, 0=no damage to plant; for pest or weed control at 1000 g/ha: Setaria faberi, 312 h, read-out: POST Application SETFA, damage to plant; for POST Application SETFA, damage to plant: 1000 g/ha
Procedure: as §1

[5] = test system: Alopecurus myosuroides (ALOMY); assay: Post-emergence herbicidal glasshouse test; conditions: post-emergence (sprayed after 8 days cultivation), evaluated after 13 days, 100=total damage to plant, 0=no damage to plant; for pest or weed control at 1000 g/ha: Alopecurus myosuroides, 312 h, read-out: POST Application ALOMY, damage to plant; for POST Application ALOMY, damage to plant: 1000 g/ha
Procedure: as §1

[6] = test system: Echinochloa crus-galli (ECHCG); assay: Pre-emergence herbicidal glasshouse test; conditions: pre-emergence (sprayed after one day cultivation), evaluated after 13 days, 100=total damage to plant, 0=no damage to plant; for pest or weed control at 1000 g/ha: Echinochloa crus-galli, 312 h, read-out: PRE Application ECHCG, damage to plant; for PRE Application ECHCG, damage to plant: 1000 g/ha
Procedure: as §1

[7] = test system: Amaranthus retoflexus (AMARE); assay: Pre-emergence herbicidal glasshouse test; conditions: pre-emergence (sprayed after one day cultivation), evaluated after 13 days, 100=total damage to plant, 0=no damage to plant; for pest or weed control at 1000 g/ha: Amaranthus retroflexus, 312 h, read-out: PRE Application AMARE, damage to plant; for PRE Application AMARE, damage to plant: 1000 g/ha
Procedure: as §1

Solanum nigrum (SOLNI) [8] = assay: Pre-emergence herbicidal glasshouse test; conditions: pre-emergence (sprayed after one day cultivation), evaluated after 13 days, 100=total damage to plant, 0=no damage to plant; for pest or weed control at 1000 g/ha: Solanum nigrum, 312 h, read-out: PRE Application SOLNI, damage to plant; for PRE Application SOLNI, damage to plant: 1000 g/ha
Procedure: as §1

Setaria faberi (SETFA) [9] = assay: Pre-emergence herbicidal glasshouse test; conditions: pre-emergence (sprayed after one day cultivation), evaluated after 13 days, 100=total damage to plant, 0=no damage to plant; for pest or weed control at 1000 g/ha: Setaria faberi, 312 h, read-out: PRE Application SETFA, damage to plant; for PRE Application SETFA, damage to plant: 1000 g/ha
Procedure: as §1

[10] = test system: Alopecurus myosuroides (ALOMY); assay: Pre-emergence herbicidal glasshouse test; conditions: pre-emergence (sprayed after one day cultivation), evaluated after 13 days, 100=total damage to plant, 0=no damage to plant; for pest or weed control at 1000 g/ha: Alopecurus myosuroides, 312 h, read-out: PRE Application ALOMY, damage to plant; for PRE Application ALOMY, damage to plant: 1000 g/ha
Procedure: as §1

| Compound | pest or weed control at 1000 g/ha [1] [%] | pest or weed control at 1000 g/ha [2] [%] | pest or weed control at 1000 g/ha (Solanum nigrum (SOLNI) [3]) [%] | pest or weed control at 1000 g/ha (Setaria faberi (SETFA) [4]) [%] | pest or weed control at 1000 g/ha [5] [%] | pest or weed control at 1000 g/ha [6] [%] | pest or weed control at 1000 g/ha [7] [%] | pest or weed control at 1000 g/ha (Solanum nigrum (SOLNI) [8]) [%] | pest or weed control at 1000 g/ha (Setaria faberi (SETFA) [9]) [%] | pest or weed control at 1000 g/ha [10] [%] | POST Application ECHCG, damage to plant [1] | POST Application AMARE, damage to plant [2] | POST Application SOLNI, damage to plant (Solanum nigrum (SOLNI) [3]) | POST Application SETFA, damage to plant (Setaria faberi (SETFA) [4]) | POST Application ALOMY, damage to plant [5] | PRE Application ECHCG, damage to plant [6] | PRE Application AMARE, damage to plant [7] | PRE Application SOLNI, damage to plant (Solanum nigrum (SOLNI) [8]) | PRE Application SETFA, damage to plant (Setaria faberi (SETFA) [9]) | PRE Application ALOMY, damage to plant [10] |
| --- | --- | --- | --- | --- | --- | --- | --- | --- | --- | --- | --- | --- | --- | --- | --- | --- | --- | --- | --- | --- |
| O=C1CCCC(=O)C1C(=O)c1cc2ccc(=O)n(CCc3ccccc3)c2nc1C(F)(F)F [Compound 2.15, 2-{8-(2-phenylethyl)-7-oxo-7,8-dihydro-2-trifluoromethyl-[1,8]-naphthyridine-3-carbonyl}-cyclohexane-1,3-dione] | 80 | 70 | 90 | 90 | 40 | 90 | 30 | 90 | 40 | 10 | – | – | – | – | – | – | – | – | – | – |
| CC#CCn1c(=O)ccc2cc(C(=O)C3C(=O)CCCC3=O)c(C(F)(F)F)nc21 [Compound 2.19, 2-(8-(But-2-ynyl)-7-oxo-7,8-dihydro-2-trifluoromethyl-[1,8]-naphthyridine-3-carbony)-cyclohexane-1,3-dione] | – | – | – | – | – | – | – | – | – | – | 90 | 70 | 100 | 100 | 100 | 100 | 100 | 100 | 100 | 100 |
| CCCCc1nc2nc(C(F)(F)F)c(C(=O)C3C(=O)CCCC3=O)cc2cc1F [Compound 1.86, 2-[7-butyl-6-fluoro-2-trifluoromethyl-[1,8]-naphthyridine-3carbony]-cyclohexane-1,3-dione] | 80 | 100 | 90 | 90 | 70 | 100 | 100 | 100 | 100 | 80 | – | – | – | – | – | – | – | – | – | – |
| O=C1CCCC(=O)C1C(=O)c1cc2ccc(CF)nc2nc1C(F)(F)F [Compound 1.11] | 90 | 100 | 100 | 90 | 70 | 100 | 80 | 100 | 100 | 60 | – | – | – | – | – | – | – | – | – | – |
| CCOC(F)(F)c1nc2nc(C)c(F)cc2cc1C(=O)C1C(=O)CCCC1=O [Compound 1.102, 2-[2-(Ethoxydifluoromethyl)-6-fluoro-7-methyl-[1,8]-naphthyridine-3-carbonyl]-cyclohexane-1,3-dione] | 80 | 90 | 60 | 80 | 60 | 90 | 100 | 100 | 100 | 30 | – | – | – | – | – | – | – | – | – | – |
| CC(C)c1nc2nc(C(F)(F)F)c(C(=O)C3C(=O)CCCC3=O)cc2cc1F [Compound 1.75, 2-[6-fluoro-7-methylethyl-2-trifluoromethyl-[1,8]-naphthyridine-3-carbony]-cyclohexane-1,3-dione] | 90 | 80 | 90 | 90 | 80 | 90 | 80 | 90 | 90 | 80 | – | – | – | – | – | – | – | – | – | – |
| Cc1nc2nc(C(F)(F)OCC(F)(F)F)c(C(=O)C3C(=O)CCCC3=O)cc2cc1F [Compound 1.91, 2-[6-fluoro-7-methyl-2[(2,2,2-trifluoroethoxy)difluoromethyl]-[1,8]-naphthyridine-3-carbony]-cyclohexane-1,3-dione] | – | – | – | – | – | – | – | – | – | – | 80 | 90 | 90 | 80 | 40 | 100 | 100 | 100 | 90 | 10 |
| Cc1c(F)cnc2nc(C(F)(F)F)c(C(=O)C3C(=O)C4CCC(C4)C3=O)cc12 (stereo not drawn) [Compound 3.5, 3-[6-Fluoro-5-methyl-2-trifluoromethyl-[1,8]-naphthyridine-3-carbony]-bicyclo[3.2.1]octane-2,4-dione] | 70 | 50 | 80 | 70 | 0 | 50 | 20 | 60 | 30 | 0 | – | – | – | – | – | – | – | – | – | – |
| O=C(c1cc2ccc(CCF)nc2nc1C(F)(F)F)C1C(=O)C2CCC(C2)C1=O (stereo not drawn) [Compound 3.10] | – | – | – | – | – | – | – | – | – | – | 90 | 100 | 90 | 90 | 80 | 100 | 70 | 100 | 90 | 70 |
| CC(CF)c1ccc2cc(C(=O)C3C(=O)C4CCC(C4)C3=O)c(C(F)(F)F)nc2n1 (stereo not drawn) [Compound 3.11] | – | – | – | – | – | – | – | – | – | – | 80 | 100 | 90 | 90 | 70 | 100 | 100 | 100 | 90 | 70 |
| C=CCn1c(=O)ccc2cc(C(=O)C3C(=O)CCCC3=O)c(C(F)(F)F)nc21 [Compound 2.14, 2-{8-allyl-7-oxo-7,8-dihydro-2-trifluoromethyl-[1,8]-naphthyridine-3-carbony}-cyclohexane-1,3-dione] | – | – | – | – | – | – | – | – | – | – | 90 | 70 | 90 | 90 | 80 | 100 | 60 | 90 | 80 | 40 |
| Cc1ccc2cc(C(=O)C3C(=O)CCCC3=O)c(C(F)F)nc2n1 [Compound 1.85, 2-(2-difluoromethyl-7-methyl-[1,8]-naphthyridine-3-carbonyl)-cyclohexane-1,3-dione] | 80 | 80 | 80 | 80 | 50 | 100 | 90 | 100 | 80 | 10 | – | – | – | – | – | – | – | – | – | – |
